Measurements: publication PMC7113757 (Antiviral Research, 2014)

Legend:
CVB3 3C^pro [1] = molecular target: T1, CVB3 3C^pro (Coxsackievirus B3, UniProt P03313); test: Cell-based protease assay
SAFV = test: Growth curves of SAFV; format: cell-based; conditions: 50 μM
HAV strain HM175 = conditions: ref Debing et al., 2013; cited from earlier work
EV71 3C^pro = EV71 3C^pro (Human enterovirus 71, UniProt Q66478); format: cell-based
CVB3 3C^pro [2] = molecular target: T1, CVB3 3C^pro; test: Western blot of fusion protein cleavage in COS-1 cells; format: cell-based; conditions: 50 μM, pBind-3Cpro(CVB3)-VP16
HAV 3C^pro = molecular target: T2, HAV 3C^pro (Human hepatitis A virus genotype IB, UniProt P08617); format: cell-based
T2 sequence (P08617 1520-1738 limits assumed): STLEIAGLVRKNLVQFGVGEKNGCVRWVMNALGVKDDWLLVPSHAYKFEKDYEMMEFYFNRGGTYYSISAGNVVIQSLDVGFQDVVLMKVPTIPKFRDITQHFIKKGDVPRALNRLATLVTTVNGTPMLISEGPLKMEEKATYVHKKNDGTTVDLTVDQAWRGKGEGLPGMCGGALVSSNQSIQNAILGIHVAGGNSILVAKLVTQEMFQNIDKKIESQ

PV 3C^pro = PV 3C^pro (Poliovirus type 1, UniProt P03300); format: cell-based
SAFV 3C^pro = molecular target: T3, SAFV 3C^pro (Saffold virus, UniProt C0MHL9); format: cell-based
T3 sequence (C0MHL9 1618-1834 limits assumed): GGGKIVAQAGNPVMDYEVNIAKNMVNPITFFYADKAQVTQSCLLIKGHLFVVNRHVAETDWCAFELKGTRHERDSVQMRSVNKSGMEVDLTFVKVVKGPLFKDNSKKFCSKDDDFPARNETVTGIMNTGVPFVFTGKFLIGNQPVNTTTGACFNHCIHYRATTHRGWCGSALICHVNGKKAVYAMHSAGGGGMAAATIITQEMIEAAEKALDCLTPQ

CVB3 3C^pro [3] = molecular target: T1, CVB3 3C^pro; test: Cell-based protease assay with EGFP read-out; conditions: 50 μM, COS-1 cells, imaged after 2 days
EMCV 3C^pro = molecular target: T4, EMCV 3C^pro (Encephalomyocarditis virus, UniProt P03304); format: cell-based
T4 sequence (P03304 1626-1830 limits assumed): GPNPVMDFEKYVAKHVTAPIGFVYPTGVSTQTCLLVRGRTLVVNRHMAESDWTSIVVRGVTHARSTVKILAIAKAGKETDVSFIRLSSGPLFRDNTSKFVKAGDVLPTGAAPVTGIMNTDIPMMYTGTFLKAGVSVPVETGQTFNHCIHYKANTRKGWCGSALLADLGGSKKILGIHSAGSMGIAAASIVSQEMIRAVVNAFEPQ

EMCV = test: Growth curves of EMCV; format: cell-based; conditions: 50 μM
HRV14 3C^pro = HRV14 3C^pro (Human rhinovirus 14, UniProt P03303); format: cell-based
FMDV 3C^pro = FMDV 3C^pro (Foot-and-mouth disease virus serotype O, UniProt P03305); test: cell-based; format: cell-based
HPeV 3C^pro = molecular target: T5, HPeV 3C^pro (Human parechovirus 1, UniProt Q66578); format: cell-based
T5 sequence (Q66578 1518-1711 limits assumed): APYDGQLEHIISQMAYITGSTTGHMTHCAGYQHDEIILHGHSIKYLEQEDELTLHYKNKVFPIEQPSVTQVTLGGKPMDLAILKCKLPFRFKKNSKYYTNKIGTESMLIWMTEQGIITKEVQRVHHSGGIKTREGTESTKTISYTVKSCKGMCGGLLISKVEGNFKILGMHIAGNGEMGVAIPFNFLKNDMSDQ

SMILES | EC50 (CVB3 3C^pro [1]) | FLuc expression upon treatment, CVB3 3Cpro construct (CVB3 3C^pro [1]; 50 μM, COS-1 cells) | increase in FLuc levels compared to untreated (CVB3 3C^pro [1]; 50 μM, COS-1 cells, CVB3 3Cpro construct) | activity against SAFV in growth curves (SAFV) | effect on HAV replication, strain HM175 (HAV strain HM175) | FLuc expression upon treatment, EV71 3Cpro construct (EV71 3C^pro) | cleavage of fusion protein (Western blot) (CVB3 3C^pro [2]) | effect on reporter activity, HAV 3Cpro construct (HAV 3C^pro) | FLuc expression upon treatment, PV 3Cpro construct (PV 3C^pro) | effect on reporter activity, SAFV 3Cpro construct (SAFV 3C^pro) | GFP signal from pG5EGFP reporter (CVB3 3C^pro [3]) | effect on reporter activity, EMCV 3Cpro construct (EMCV 3C^pro) | activity against EMCV in growth curves (EMCV) | FLuc expression upon treatment, HRV14 3Cpro construct (HRV14 3C^pro) | FLuc expression upon treatment, FMDV 3Cpro construct (FMDV 3C^pro) | effect on reporter activity, HPeV 3Cpro construct (HPeV 3C^pro) | EC50 (FMDV 3C^pro) | inhibitory activity towards FMDV 3Cpro (FMDV 3C^pro)
CCOC(=O)/C=C/[C@H](C[C@@H]1CCNC1=O)NC(=O)[C@@H](CC(=O)[C@@H](NC(=O)c1cc(C)on1)C(C)C)Cc1ccc(F)cc1 [AG7088] | 1100 nM | induced | ~40 fold | no significant activity | no effect | induced | not completely blocked | no effect | induced | no effect | GFP was visible | no effect | no significant activity | induced | increased | no effect |  | 
C#CC[C@@H](C(=O)N[C@H](/C=C/C(=O)OCC)C[C@@H]1CCNC1=O)n1cccc(NC(=O)c2cc(C)on2)c1=O [AG7404] | 3600 nM |  |  |  |  |  |  |  |  |  |  |  |  |  |  |  | > 100 µM | little or no inhibitory activity
